Read-outs that look alike come from different tables or passages of the source.
Assays:
[1] = system: MEX-3; assay: Fluorescence polarization screening of MEX-3 binding to fluorescein-labeled SEQ 14 RNA; conditions: 192 μM test compound; 80 nM MBP-MEX-3, no zinc acetate; lowest score = greatest inhibition
[2] = target: T1, MEX-5 (Caenorhabditis elegans, UniProt Q9XUB2); assay: Fluorescence polarization screening of MEX-5 binding to fluorescein-labeled TCR2 RNA; conditions: for remaining activity at 192 µM: read-out: MEX-5 score; for IC50: further screening as described above (fluorescence polarization), dose response
T1 construct: The fragment of mex-5 containing the TZF domain (amino acids 236-350) was amplified; made in house; host or cells: Escherichia coli JM109
T1 sequence (Q9XUB2 236-350): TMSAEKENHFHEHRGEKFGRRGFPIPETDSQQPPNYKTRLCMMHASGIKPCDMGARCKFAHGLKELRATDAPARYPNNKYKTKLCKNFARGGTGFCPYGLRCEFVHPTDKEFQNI
Source text: The expression and purification of recombinant MEX-5 protein has previously been described in Pagano, J. M., Farley, B. M., McCoig, L. M. and Ryder, S. P. (2007) “Molecular basis of RNA recognition by the embryonic polarity determinant MEX-5;” J Biol Chem; 282, 8883-8894. The fragment of mex-5 containing the TZF domain (amino acids 236-350) was amplified from a commercially available ORFeome clone (Open Biosystems) and sub-cloned into the vector pMal-c (NEB), which encodes maltose binding protein as an N-terminal fusion. This construct is termed pMal-MEX-5 (236-350).
MEX-5 is expressed in Escherchia. coli JM109 liquid cultures grown at 37° C. Cultures were induced during mid log phase by the addition of 0.1 mM isopropyl 1-thio-β-D-galactopyranoside (IPTG) and allowed to grow for three hours. An amount of 100 μM zinc acetate (final concentration) was added at the time of induction. The pelleted cells were resuspended in lysis buffer (50 mM Tris pH 8.8, 200 mM NaCl, 2 mM DTT, EDTA free protease inhibitor tablet (Roche), 100 μM Zn(OAc)2) and lysed by sonication. The soluble protein was purified in three steps using standard chromatography methods: (1) amylose affinity (NEB), (2) Hi-TRAP-Q (GE Healthcare), and (3) Hi-TRAP-S (GE Healthcare). The Q buffer was composed of 50 mM Tris, pH 8.8, 20 mM-1500 mM NaCl, 2 mM DTT, and 100 μM Zn(OAc)2. The S buffer was composed of 50 mM MOPS, pH 6.0, 20 mM-1500 mM NaCl, 2 mM DTT, 100 μM Zn(OAc)2. The pure fractions, determined by coomassie-stained SDS-PAGE, were dialyzed into storage buffer (20 mM Tris, pH 8.0, 25 mM NaCl, 100 μM Zn(OAc)2, 2 mM DTT). The protein concentration was determined by measuring absorbance at 280 nm and the calculated extinction coefficient. The protein was stored at 50 μM concentration at 4° C.
All RNA oligonucleotides were chemically synthesized by Dharmacon or Integrated DNA Technologies. Upon arrival, each RNA was deprotected and stored according to the manufacturer's instructions. Prior to use, the RNA was resuspended in 10 mM Tris-HCl, pH 8.0, 0.1 mM EDTA, and the concentration determined by UV spectrophotometry using the calculated extinction coefficient at 260 nm based on the specific sequence. The sequence of the MEX-5 binding RNA (TCR2) is […] (SEQ ID NO:1). The POS-1 binding RNA (BMF018) is […] (SEQ ID NO:2). The MEX-3 binding RNA (SEQ 14) is […] (SEQ ID NO:3).
The RNA used for the small molecule screen was labeled at the 3′-end with fluorescein by Dharmacon during synthesis. In a few cases, follow up experiments were performed with post-synthetically labeled RNA. In this case, fluorescein 5-thiosemicarbazide (FTSC, Invitrogen) was used to 3′-end label each RNA after treatment with sodium periodate (see Reines, S. A. and Cantor, C. R. (1974) “New fluorescent hydrazide reagents for the oxidized 3′-terminus of RNA” Nucleic Acids Res. 1, 767-786). A representative 50 μl reaction consisted of 0.5 nanomoles RNA, 100 mM NaOAc, pH 5.1, and 5 nanomoles NaIO4. After the reaction was complete (90 minutes at room temperature), the sample was ethanol precipitated by adding 1 μl RNase free glycogen (Invitrogen 20 μg/μl), 1/20th volume of 5 M NaCl, and 2 volumes of 100% ice-cold ethanol. The resulting pellet was resuspended in 50 μl of 100 mM NaOAc, pH 5.1 containing 1 mM FTSC and was allowed to react overnight at 4° C. in the dark. The unreacted label was removed by ethanol precipitation with resuspension of the pellet in a small volume of TE, and purification over a Roche G-25 size exclusion spin column. The labeling efficiency is determined by calculating the ratio of fluorescein absorbance at 490 nm to RNA-fluorescein absorbance at 260 nm. Typical efficiencies are 60-80%.
The ability of MEX-5 to associate with RNA was monitored by fluorescence polarization using a victor V3 or victor V2V plate reader (Perkin Elmer) in 384-well FluoTrak microplates (Grenier). […]

[3] = target: T2, POS-1 (Caenorhabditis elegans, UniProt G5EF15); assay: Fluorescence polarization screening of POS-1 binding to fluorescein-labeled BMF018 RNA; conditions: read-out: POS-1 score
T2 construct: 6-his tag (N); made in house; host or cells: E. coli BL21 (DE3) Gold
T2 sequence (G5EF15 80-180): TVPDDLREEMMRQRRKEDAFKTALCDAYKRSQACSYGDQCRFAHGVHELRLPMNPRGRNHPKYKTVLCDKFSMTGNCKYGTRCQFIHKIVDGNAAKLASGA

[4] = target: T1, MEX-5; assay: Dose response gel shift assay, MEX-5 with TCR2 RNA; assay type: binding; conditions: 120 nM MEX-5, 2-3 nM fluorescein labeled TCR2 RNA
Protocol: A further dose response assay was performed on select compounds of the invention as described below. A sub-saturating concentration of MEX-5 or POS-1 (120 nM) was equilibrated with limiting fluorescein labeled RNA (2-3 nM, TCR2 RNA or MEX-3 UTR fragment RNA respectively) in the presence of varying concentrations of compound. Following equilibration, the reactions were loaded onto a 5% slab polyacrylamide gel and subjected to electrophoresis for about 1 hour to separate protein-RNA complex from free RNA. The gel was scanned on a FUJI FLA-5000 imager, and the fraction of bound RNA determined by dividing the intensity of the bound RNA by the intensity of the bound RNA plus the free RNA. The […] was plotted as a function of compound concentration and fit to a sigmoidal dose response function in order to determine the IC50, the concentration that gives half maximal inhibition.

[5] = 192 μM test compound, score = polarization relative to no-drug and no-protein controls, 0.25 = 75% inhibition, lowest score = greatest inhibition

Structure (SMILES)	remaining activity at 192 µM [2, 5] [%]	remaining activity at 192 µM [3, 5] [%]	also measured
CCOC(=O)c1sc(NC(=S)NC(=O)c2cc3ccccc3o2)c(C(=O)OCC)c1C [FB]			MEX-3 score [1]: 0.2585
Cc1ccc(C(CC(=O)N2CCCC2)c2ccco2)cc1 (stereo not shown) [FA]			MEX-3 score [1]: 0.2093
O=C(O)c1ccc(NC(=S)NC(=O)c2ccc(I)cc2)cc1 [AE]	8.11	3.61	MEX-3 score [1]: 0.1624
O=C(CSc1nc2ccccc2s1)Nc1ccc(S(=O)(=O)Nc2nccs2)cc1 [DG]		10.9	IC50 [4]: 170 µM; IC50 [2]: 160 µM
CCOC(=O)c1ccccc1OC(=O)c1ccc2c(c1)C1C=CCC1C(C(=O)O)N2 (stereo not shown) [B]	-3.69	5.51	
CC1(C)CC(Cc2nnc(S)[nH]2)C(=O)O1 (stereo not shown) [S]	5	10.5	
O=C1C2CC=C(Cl)CC2C(=O)N1c1nnc[nH]1 (stereo not shown) [DJ]		13.8	IC50 [4]: 3.8 µM; IC50 [2]: 3.5 µM
O=C(O)c1ccc(Sc2nnc(-c3cccc(Br)c3)o2)c([N+](=O)[O-])c1 [G]	-0.64	24.2	
O=[N+]([O-])c1ccc(S(=O)(=O)Nc2cc(Cl)ccc2O)cc1 [AD]	8.04	8.27	
O=C(O)c1ccccc1NC(=S)NC(=O)c1sc2ccccc2c1Cl [BP]	19.2	4.54	
O=C(O)C1CCC(N2C(=O)c3c(Cl)c(Cl)c(Cl)c(Cl)c3C2=O)CC1 (stereo not shown) [AO]	10.6	6.81	
Cc1[nH]nc(-c2ccc(O)c(O)c2O)c1-c1ccccc1 [P]	3.42	4.3	
CCOc1cc(C(NC(C)=O)c2cc([N+](=O)[O-])c3cccnc3c2O)ccc1O (stereo not shown) [AL]	10.4	12.3	
O=[N+]([O-])c1cccc(/C(=N\O)Nc2nnc(-c3cccnc3)s2)c1 [EZ]			MEX-3 score [1]: 0.124
COc1ccc(C(=O)NC(=S)Nc2ccc(C(=O)O)c(Cl)c2)cc1[N+](=O)[O-] [BF]	16.7	9.05	
Cn1c(S)nnc1-c1ccccc1O [Z]	6.88	12.7	
COc1ccc(Cl)cc1C(=O)Nc1ccc(S(=O)(=O)Nc2nccs2)cc1 [BK]	18.4		IC50 [4]: 110 µM; IC50 [2]: 540 µM
COc1ccc(CCNC(=O)c2ccc(C(=O)NCCc3ccc(OC)c(OC)c3)nc2)cc1OC [EX]			MEX-3 score [1]: 0.0674
Cc1nnc(NC(=O)c2cccc(C(=O)Nc3nnc(C)s3)n2)s1 [AF]	8.13	22.7	
CC(=O)Oc1ccc(S(=O)(=O)c2ccc(OC(C)=O)c(OC(C)=O)c2)cc1OC(C)=O [J]	-0.0941	8.51	

Structure (SMILES)	remaining activity at 192 µM [2, 5] [%]	remaining activity at 192 µM [3, 5] [%]	also measured
O=C1NN(c2ccccc2)C(=O)/C1=C\c1cccc(OC(=O)c2cccs2)c1 [CA]	21.6	23	
Cc1n[nH]c(SCc2cccc(CSc3nc(C)n[nH]3)c2)n1 [L]	1.21	-0.0864	
CCOc1ccc(NS(=O)(=O)c2ccc(C)c(C(N)=O)c2)cc1 [EY]			MEX-3 score [1]: 0.08965
Oc1ccc(Br)cc1-c1n[nH]c(=S)n1Cc1ccccc1 [CB]	21.7	23.9	
CCn1c(-c2cc(Br)ccc2O)n[nH]c1=S [AU]	13.4	24.8	
O=C(O)CCn1cc(C=C2C(=O)NC(=S)NC2=O)c(-c2cc3ccccc3oc2=O)n1 [BA]			remaining activity at 192 µM [2]: 15.2%; remaining activity at 192 µM [3]: 22.2%
CCc1nnc(NS(=O)(=O)c2ccc(NC(=O)c3cc4cc(OC)ccc4oc3=O)cc2)s1 [BU]	20.8	18.1	
O=S(=O)(Nc1ccc(Cl)cc1O)c1ccccc1 [D]	-1.58	-3.79	
O=[N+]([O-])c1ccc(NS(=O)(=O)c2ccccc2)c(NS(=O)(=O)c2ccccc2)c1 [AQ]	12.4	11.6	
Oc1ccc(-c2csc(Nc3cccc4ccccc34)n2)cc1O [AY]	14.1	18	
O=C(O)c1cc(NC(=O)c2cccc(N3C(=O)CCC3=O)c2)cc(C(=O)O)c1 [AH]	8.76	14.6	
O=c1cc(-c2ccccc2)c2ccc(O)c(O)c2o1 [I]	-0.142	0.543	
O=C1NN(c2cccc(Br)c2)C(=O)/C1=C\c1cccc(OC(=O)c2cccs2)c1 [BI]	17.9	10.6	
O=C(Nc1nnc[nH]1)c1ccccc1O [AI]	9.13	2.5	
O=C(Oc1ccc2c(c1)C1C=CCC1C(C(=O)O)N2)c1ccc(Cl)cc1Cl (stereo not shown) [K]	0.00138	5.81	
Cc1n[nH]c(SCc2ccc(CSc3nc(C)n[nH]3)cc2)n1 [AA]	7.14	0.702	
COC(=O)c1ccccc1OC(=O)c1ccc2c(c1)C1C=CCC1C(C(=O)O)N2 (stereo not shown) [A]	-10.3	7.5	
CC1(C)Cc2ccccc2-c2[nH]c3nnc(S)n3c(=O)c21 [O]	2.3	4.77	
Sc1nnc(CSCc2ccccc2Cl)n1-c1ccccc1 [BL]	18.8	27.6	
O=C(Oc1ccc2ccccc2c1)c1ccc2c(c1)C1C=CCC1C(C(=O)O)N2 (stereo not shown) [H]	-0.336	1.95	
